In test [1] the test system is KG1α cells (refractory acute myeloid leukemia). In words: Cell viability of KG1α cells, WST assay. Conditions: 0.1-3 μM. In kind it is cell-based, human. As for the experimental part:
Acute leukemia has been identified to have a wide variety of causative factors and a variety of cell lines have also been established. To investigate the availability as a wide-spectrum medicine but not a medicine for a particular type of acute leukemia, KG1α cells were constructed by selecting only cells having a stem cell phenotype from KG1 cells, which are a cell line obtained from a -person with acute myeloid leukemia, and then used.
KG1α cells were incubated in IMDM containing 20% fetal bovine serum (FBS). All the cells were incubated at 37 °C in a 5% CO2 incubator, and subcultured every 2 or 3 days before use in the test.
KG1α cells, which have resistance to idarubicin and cytarabine, which are acute myeloid leukemia medicines, are refractory acute myeloid leukemia (AML) cells. KG1α cells incubated in Example 2-1 were seeded at 1×10^5 cells/well in a 96-well plate, and then for cell stabilization, the cells were incubated at 37 °C in a 5% CO2 incubator for 16 hours or longer. Thereafter, the cells were treated with compounds 99 and 163 (0.1-3 μM) shown in Table 4 out of the compounds synthesized in Example 1, and then incubated for 24 hours. […] After 24 hours, the cells were treated with 10 μl of WST solution and then incubated for 2 hours, and then the absorbance at 450 nm was measured by a multi-scan machine.

Test [2] has as its system MCF7 (breast adenocarcinoma) cells. In words: Cell viability of solid cancer cells, WST assay, MCF7. In kind it is cell-based. Conditions: Homo sapiens, 1-30 μM, 6 hours. The text has this:
(§1) To investigate availability as a medicine for solid cancer, A549 cell line obtained from a -person with lung carcinoma, HeLa cell line obtained from a person with cervix adenocarcinoma, HepG2 cell line obtained from a child with hepatocellular carcinoma, MCF7 cell line obtained from a person with breast adenocarcinoma, and Beas-2B cell line obtained from normal lung for comparison with solid cancer cell line were used.
(§2) A549 (lung carcinoma), HeLa (cervix adenocarcinoma), HepG2 (hepatocellular carcinoma), MCF7 (breast adenocarcinoma), and Beas-2B (normal lung) cell lines were incubated in DMEM medium containing 10% FBS at 37 °C in a 5% CO2 incubator, and subcultured every 2 days before use in the test.
(§3) A549 (lung carcinoma), HeLa (cervix adenocarcinoma), HepG2 (hepatocellular carcinoma), MCF7 (breast adenocarcinoma), and Beas-2B (normal lung) cells were seeded at 1×10^4 cells/well in a 96-well plate, and then for cell stabilization, the cells were incubated at 37 °C in a 5% CO2 incubator for 16 hours or longer. Thereafter, the cells were treated with compounds 99, 163, 191, and 192 (1-30 μM) out of the compounds synthesized in Example 1-1, and then incubated for 6 hours. DMSO and β-lapachone were used as a control. After 4 hours of incubation, 10 μl of WST solution was added to the cells, followed by incubation for 2 hours, and then the absorbance at 450 nm was measured by a multi-scan machine. The cell viability of A549 (lung carcinoma), HeLa (cervix adenocarcinoma), HepG2 (hepatocellular carcinoma), MCF7 (breast adenocarcinoma), and Beas-2B (normal lung) cells is shown in Table 5 and FIG. 5.

Test [3] relates to HepG2 (hepatocellular carcinoma) cells. In words: Cell viability of solid cancer cells, WST assay, HepG2. Conditions: Homo sapiens, 1-30 μM, 6 hours. In kind it is cell-based.
Text: as §1, §2, §3

Test [4] relates to A549 (lung carcinoma) cells. In words: Cell viability of solid cancer cells, WST assay, A549. Conditions: Homo sapiens, 1-30 μM, 6 hours. In kind it is cell-based.
Text: as §1, §2, §3

The test system of test [5] is K562 cells (chronic myeloid leukemia). In words: Cell viability of K562 cells, WST assay. Conditions: 0.1-5 μM. In kind it is cell-based, human. Here is the method:
K562 cells obtained from a -person with chronic myeloid leukemia were incubated in RPMI medium containing 10% fetal bovine serum (FBS) at 37 °C in a 5% CO2 incubator, and subcultured every 2 days before use in the test.
K562 cells incubated in Example 3-1 were seeded at 1×10^5 cells/well in a 96-well plate, and then for cell stabilization, the cells were incubated at 37 °C in a 5% CO2 incubator for 16 hours or longer. Thereafter, the cells were treated with compounds 99, 163, 191, and 192 (0.1-5 μM) out of the compounds synthesized in Example 1-1, and then incubated for 4 hours. DMSO was used as a control. After 4 hours of incubation, 10 μl of WST solution was added to the cells, followed by incubation for 2 hours, and then the absorbance at 450 nm was measured by a multi-scan machine.

Test [6] deals with HeLa (cervix adenocarcinoma) cells. In words: Cell viability of solid cancer cells, WST assay, HeLa. Conditions: Homo sapiens, 1-30 μM, 6 hours. In kind it is cell-based.
Text: as §1, §2, §3

In general, IC50 refers to the concentration that gives 50% inhibition. A low value points to greater potency. For `CC(C)c1nc2c(s1)C(=O)C(=O)c1ccccc1-2` [Compound 163], the IC50 in test [1] (24 hours) is 0.9 µM; in test [1] (Homo sapiens, KG-1, 24 h), 0.5 to 1 µM; in test [2] it was 13 µM; in test [3], 14.1 µM; in test [4], 6.1 µM; in test [5] (Homo sapiens, K562, 4 h), 2.1 µM. The IC50 in test [6] stood at 4.6 µM.

For `Cn1nnc2c1C(=O)C(=O)c1ccccc1-2` [Compound 192], the IC50 was 11.7 µM in test [2]; 12.2 µM in test [3]; 5 µM in test [4]; 1.2 µM in test [5] (4 hours); 1 to 2 µM in test [5] (Homo sapiens, K562, 4 h); 4.4 µM in test [6].

With `Cn1nc2c(n1)-c1ccccc1C(=O)C2=O` [Compound 191], the IC50 is 14.8 µM in test [2]; 13.8 µM in test [3]; 8.4 µM in test [4]; 1.6 µM in test [5] (4 hours); 1 to 2 µM in test [5] (Homo sapiens, K562, 4 h); 6.6 µM in test [6].

The record behind these values is patent publication US11717511B2, “Pharmaceutical composition comprising derivative compound of 1,2-naphthoquinone for preventing or treating solid cancer or blood cancer” (HUEN Co., Ltd., priority 2018, dated 2023).
